Source: PubChem BioAssay AID1259407 (Chemical Carcinogenesis Research Information System (CCRIS), 2018)
Activity calls are given as the source filed them. No rule for the calls is given here.

Test system: CCRIS mutagenicity, Ames/micronucleus/aberration tests
Assay: CCRIS mutagenicity studies
Details: Test System: AMES SALMONELLA TYPHIMURIUM, Method: PREINCUBATION

Measured: mutagenic call

CN(C)CCN(C)C
inactive: Strain/Indicator: TA98, Metabolic Activation: HAMSTER, LIVER, S-9, AROCLOR 1254 (10%) inactive; negative | Strain/Indicator: TA98, Metabolic Activation: NONE inactive; negative | Strain/Indicator: TA98, Metabolic Activation: RAT, LIVER, S-9, AROCLOR 1254 (10%) inactive; negative | Strain/Indicator: TA100, Metabolic Activation: HAMSTER, LIVER, S-9, AROCLOR 1254 (10%) inactive; negative | Strain/Indicator: TA100, Metabolic Activation: NONE inactive; negative | Strain/Indicator: TA100, Metabolic Activation: RAT, LIVER, S-9, AROCLOR 1254 (10%) inactive; negative | Strain/Indicator: TA1535, Metabolic Activation: HAMSTER, LIVER, S-9, AROCLOR 1254 (10%) inactive; negative | Strain/Indicator: TA1535, Metabolic Activation: NONE inactive; negative | Strain/Indicator: TA1535, Metabolic Activation: RAT, LIVER, S-9, AROCLOR 1254 (10%) inactive; negative | Strain/Indicator: TA1537, Metabolic Activation: HAMSTER, LIVER, S-9, AROCLOR 1254 (10%) inactive; negative | Strain/Indicator: TA1537, Metabolic Activation: NONE inactive; negative | Strain/Indicator: TA1537, Metabolic Activation: RAT, LIVER, S-9, AROCLOR 1254 (10%) inactive; negative
